Measurements reported in patent US7875647B2, “Heteroaryl-pyrazole derivatives as cannabinoid CB1 receptor antagonists” (Green Cross Corporation, priority 2006, dated 2011).

These compounds were tested against T1, Cannabinoid-1 receptor (CB1R) (Rattus norvegicus, UniProt P20272) (assay: Cannabinoid-1 receptor (CB1R) binding affinity assay ([3H]CP-55940, rat CB-1 receptor binding protocol)). Details: IC50(nM), brain tissue of SD rats, [3H]CP-55940, 30° C. 60 min.
T1 construct: The tissue obtained from the brain of SD rats was homogenized; from tissue; host or cells: brain of SD rats (membrane pellet of the homogenate)
T1 sequence (P20272 whole entry): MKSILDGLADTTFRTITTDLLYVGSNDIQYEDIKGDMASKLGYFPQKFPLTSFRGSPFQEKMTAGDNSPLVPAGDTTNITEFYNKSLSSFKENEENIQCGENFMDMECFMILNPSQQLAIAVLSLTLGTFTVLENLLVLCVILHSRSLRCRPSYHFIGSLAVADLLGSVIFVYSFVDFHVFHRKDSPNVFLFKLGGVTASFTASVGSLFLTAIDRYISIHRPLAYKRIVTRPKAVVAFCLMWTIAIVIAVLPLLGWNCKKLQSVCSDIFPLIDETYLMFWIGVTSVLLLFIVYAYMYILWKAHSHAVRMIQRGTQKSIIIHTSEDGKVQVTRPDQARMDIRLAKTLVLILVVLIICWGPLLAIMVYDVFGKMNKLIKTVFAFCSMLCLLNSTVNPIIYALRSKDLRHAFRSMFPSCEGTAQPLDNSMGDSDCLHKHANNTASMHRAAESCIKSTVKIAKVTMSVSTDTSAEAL

| Compound | IC50 [nM] |
| --- | --- |
| CCCCCOC(C)(C)c1nnc(-c2nn(-c3ccc(Cl)cc3Cl)c(-c3ccc(Cl)cc3)c2C)o1 [Example 244, 2-(5-(4-chlorophenyl)-1-(2,4-dichlorophenyl)-4-methyl-1H-pyrazol-3-yl)-5-(2-(pentyloxy)propan-2-yl)-1,3,4-oxadiazole] | 15.1 |

Same assay, conditions: brain tissue of SD rats, [3H]CP-55940, 30° C. 60 min; read-out: IC50

| IC50 [nM] | Compound |
| --- | --- |
| 14.7 | Cc1c(-c2nnc(C3(C)CC3)o2)nn(-c2ccc(Cl)cc2Cl)c1-c1ccc(Cl)cc1 [Example 275, 2-(5-(4-chlorophenyl)-1-(2,4-dichlorophenyl)-4-methyl-1H-pyrazol-3-yl)-5-(1-methylcyclopropyl)-1,3,4-oxadiazole] |
| 13 | CCc1c(-c2nnc(C3(C)CC3)o2)nn(-c2ccc(Cl)cc2Cl)c1-c1ccc(Br)cc1 [Example 276, 2-(5-(4-bromophenyl)-1-(2,4-dichlorophenyl)-4-ethyl-1H-pyrazol-3-yl)-5-(1-methylcyclopropyl)-1,3,4-oxadiazole] |
| 25.8 | COc1ccc(C2(c3nnc(-c4nn(-c5ccc(Cl)cc5Cl)c(-c5ccc(Cl)cc5)c4C)s3)CC2)cc1 [Example 458, 2-(5-(4-chlorophenyl)-1-(2,4-dichlorophenyl)-4-methyl-1H-pyrazol-3-yl)-5-(1-(4-methoxyphenyl)cyclopropyl)-1,3,4-thiadiazole] |
| 10.3 | CCc1c(-c2nnc(CC3CCCCC3)o2)nn(-c2ccc(Cl)cc2Cl)c1-c1ccc(Br)cc1 [Example 55, 2-(5-(4-bromophenyl)-1-(2,4-dichlorophenyl)-4-ethyl-1H-pyrazol-3-yl)-5-(cyclohexylmethyl)-1,3,4-oxadiazole] |
| 7.89 | FCc1c(-c2nnc(C3(c4ccc(Cl)cc4)CC3)o2)nn(-c2ccc(Cl)cc2Cl)c1-c1ccc(Cl)cc1 [Example 223, 2-(5-(4-chlorophenyl)-1-(2,4-dichlorophenyl)-4-(fluoromethyl)-1H-pyrazol-3-yl)-5-(1-(4-chlorophenyl)cyclopropyl)-1,3,4-oxadiazole] |
| 61.3 | CCCOC(C)(C)c1nnc(-c2nn(-c3ccc(Cl)cc3Cl)c(-c3ccc(Cl)cc3)c2C)s1 [Example 449, 2-(5-(4-chlorophenyl)-1-(2,4-dichlorophenyl)-4-methyl-1H-pyrazol-3-yl)-5-(2-propoxypropan-2-yl)-1,3,4-thiadiazole] |
| 12 | C=C(C)c1c(-c2nnc(C(C)(C)C)s2)nn(-c2ccc(Cl)cc2Cl)c1-c1ccc(Br)cc1 [Example 535, 2-(5-(4-bromophenyl)-1-(2,4-dichlorophenyl)-4-(prop-1-en-2-yl)-1H-pyrazol-3-yl)-5-tert-butyl-1,3,4-thiadiazole] |
| 67.9 | Cc1c(-c2nnn(C3CCCC3)n2)nn(-c2ccc(Cl)cc2Cl)c1-c1ccc(Cl)cc1 [Example 578, 5-(5-(4-Chlorophenyl)-1-(2,4-dichlorophenyl)-4-methyl-1H-pyrazol-3-yl)-2-cyclopentyl-2H-tetrazole] |
| 6.12 | CC(C)(C)c1nnc(-c2nn(-c3ccc(Cl)cc3Cl)c(-c3ccc(Cl)cc3)c2CC#N)o1 [Example 310, 2-(3-(5-tert-butyl-1,3,4-oxadiazol-2-yl)-5-(4-chlorophenyl)-1-(2,4-dichlorophenyl)-1H-pyrazol-4-yl)acetonitrile] |
| 15 | CC(C)c1c(-c2nnc(C3(C(F)(F)F)CC3)o2)nn(-c2ccc(Cl)cc2Cl)c1-c1ccc(Cl)cc1 [Example 190, 2-(5-(4-chlorophenyl)-1-(2,4-dichlorophenyl)-4-isopropyl-1H-pyrazol-3-yl)-5-(1-(trifluoromethyl)cyclopropyl)-1,3,4-oxadiazole] |
| 15 | Cc1c(-c2nnc(C3(Cc4ccccc4)CC3)o2)nn(-c2ccc(Cl)cc2Cl)c1-c1ccc(Cl)cc1 [Example 270, 2-(1-benzylcyclopropyl)-5-(5-(4-chlorophenyl)-1-(2,4-dichlorophenyl)-4-methyl-1H-pyrazol-3-yl)-1,3,4-oxadiazole] |
| 16.9 | C=Cc1c(-c2nnc(C(C)(C)C)o2)nn(-c2ccc(Cl)cc2Cl)c1-c1ccc(Cl)cc1 [Example 227, 2-tert-butyl-5-(5-(4-chlorophenyl)-1-(2,4-dichlorophenyl)-4-vinyl-1H-pyrazol-3-yl)-1,3,4-oxadiazole] |
| 61 | C=CCOC(C)(C)c1nnc(-c2nn(-c3ccc(Cl)cc3Cl)c(-c3ccc(Cl)cc3)c2C)s1 [Example 456, 2-(2-(allyloxy)propan-2-yl)-5-(5-(4-chlorophenyl)-1-(2,4-dichlorophenyl)-4-methyl-1H-pyrazol-3-yl)-1,3,4-thiadiazole] |
| 1.91 | Clc1ccc(-c2c(Cn3cncn3)c(-c3nnc(C4(c5ccc(Cl)cc5)CCCC4)s3)nn2-c2ccc(Cl)cc2Cl)cc1 [Example 515, 2-(4-((1H-1,2,4-triazol-1-yl)methyl)-5-(4-chlorophenyl)-1-(2,4-dichlorophenyl)-1H-pyrazol-3-yl)-5-(1-(4-chlorophenyl)cyclopentyl)-1,3,4-thiadiazole] |
| 27.2 | Cc1c(-c2nnc(C3(Cc4ccc(Cl)cc4)CC3)s2)nn(-c2ccc(Cl)cc2Cl)c1-c1ccc(Cl)cc1 [Example 471, 2-(1-(4-chlorobenzyl)cyclopropyl)-5-(5-(4-chlorophenyl)-1-(2,4-dichlorophenyl)-4-methyl-1H-pyrazol-3-yl)-1,3,4-thiadiazole] |
| 7.98 | CCc1c(-c2nnc(C3(c4ccc(Cl)cc4)CC3)s2)nn(-c2ccc(Cl)cc2Cl)c1-c1ccc(Br)cc1 [Example 432, 2-(5-(4-bromophenyl)-1-(2,4-dichlorophenyl)-4-ethyl-1H-pyrazol-3-yl)-5-(1-(4-chlorophenyl)cyclopropyl)-1,3,4-thiadiazole] |
| 112 | Cc1c(-c2ncc(CC(C)C)s2)nn(-c2ccc(Cl)cc2Cl)c1-c1ccc(Cl)cc1 [Example 646, 2-(5-(4-chlorophenyl)-1-(2,4-dichlorophenyl)-4-methyl-1H-pyrazol-3-yl)-5-isobutylthiazole] |
| 2.16 | CCc1c(-c2nnc(C3(c4ccc(Cl)cc4)CC3)o2)nn(-c2ccccc2Cl)c1-c1ccc(Cl)cc1 [Example 144, 2-(1-(2-chlorophenyl)-5-(4-chlorophenyl)-4-ethyl-1H-pyrazol-3-yl)-5-(1-(4-chlorophenyl)cyclopropyl)-1,3,4-oxadiazole] |
| 166 | Cc1c(-c2nnnn2C(C)C)nn(-c2ccc(Cl)cc2Cl)c1-c1ccc(Cl)cc1 [Example 575, 5-(5-(4-Chlorophenyl)-1-(2,4-dichlorophenyl)-4-methyl-1H-pyrazol-3-yl)-1-isopropyl-1H-tetrazole] |
| 6.88 | CC(C)(C)c1nnc(-c2nn(-c3ccc(Cl)cc3Cl)c(-c3ccc(Cl)cc3)c2CO)s1 [Example 523, (3-(5-tert-butyl-1,3,4-thiadiazol-2-yl)-5-(4-chlorophenyl)-1-(2,4-dichlorophenyl)-1H-pyrazol-4-yl)methanol] |
| 227 | Cc1c(-c2n[nH]c(C3CCCCC3)n2)nn(-c2ccc(Cl)cc2Cl)c1-c1ccc(Cl)cc1 [Example 612, 3-(5-(4-Chlorophenyl)-1-(2,4-dichlorophenyl)-4-methyl-1H-pyrazol-3-yl)-5-cyclohexyl-1H-1,2,4-triazole] |

| Compound | IC50 [nM] |
| --- | --- |
| Clc1ccc(-c2c(Cn3cncn3)c(-c3nnc(C4(c5ccccc5)CC4)s3)nn2-c2ccc(Cl)cc2Cl)cc1 [Example 507, 2-(4-((1H-1,2,4-triazol-1-yl)methyl)-5-(4-chlorophenyl)-1-(2,4-dichlorophenyl)-1H-pyrazol-3-yl)-5-(1-phenylcyclopropyl)-1,3,4-thiadiazole] | 1.79 |
